Earlier results, collected in US20090192135A1, “Human Niemann Pick C1-Like 1 Gene (NPC1L1) Polymorphisms and Methods of Use Thereof” (SCHERING CORPORATION, priority 2005, published 2009).

Legend:
[1] = target: T1, NPC1L1 (Homo sapiens, UniProt Q9UHC9); conditions: cited from earlier work
T1 construct: from tissue; host or cells: small intestine of hypercholesterolemic patients (in vivo, clinical trial)
T1 sequence (Q9UHC9 22-1332 isoform Q9UHC9-2 limits assumed): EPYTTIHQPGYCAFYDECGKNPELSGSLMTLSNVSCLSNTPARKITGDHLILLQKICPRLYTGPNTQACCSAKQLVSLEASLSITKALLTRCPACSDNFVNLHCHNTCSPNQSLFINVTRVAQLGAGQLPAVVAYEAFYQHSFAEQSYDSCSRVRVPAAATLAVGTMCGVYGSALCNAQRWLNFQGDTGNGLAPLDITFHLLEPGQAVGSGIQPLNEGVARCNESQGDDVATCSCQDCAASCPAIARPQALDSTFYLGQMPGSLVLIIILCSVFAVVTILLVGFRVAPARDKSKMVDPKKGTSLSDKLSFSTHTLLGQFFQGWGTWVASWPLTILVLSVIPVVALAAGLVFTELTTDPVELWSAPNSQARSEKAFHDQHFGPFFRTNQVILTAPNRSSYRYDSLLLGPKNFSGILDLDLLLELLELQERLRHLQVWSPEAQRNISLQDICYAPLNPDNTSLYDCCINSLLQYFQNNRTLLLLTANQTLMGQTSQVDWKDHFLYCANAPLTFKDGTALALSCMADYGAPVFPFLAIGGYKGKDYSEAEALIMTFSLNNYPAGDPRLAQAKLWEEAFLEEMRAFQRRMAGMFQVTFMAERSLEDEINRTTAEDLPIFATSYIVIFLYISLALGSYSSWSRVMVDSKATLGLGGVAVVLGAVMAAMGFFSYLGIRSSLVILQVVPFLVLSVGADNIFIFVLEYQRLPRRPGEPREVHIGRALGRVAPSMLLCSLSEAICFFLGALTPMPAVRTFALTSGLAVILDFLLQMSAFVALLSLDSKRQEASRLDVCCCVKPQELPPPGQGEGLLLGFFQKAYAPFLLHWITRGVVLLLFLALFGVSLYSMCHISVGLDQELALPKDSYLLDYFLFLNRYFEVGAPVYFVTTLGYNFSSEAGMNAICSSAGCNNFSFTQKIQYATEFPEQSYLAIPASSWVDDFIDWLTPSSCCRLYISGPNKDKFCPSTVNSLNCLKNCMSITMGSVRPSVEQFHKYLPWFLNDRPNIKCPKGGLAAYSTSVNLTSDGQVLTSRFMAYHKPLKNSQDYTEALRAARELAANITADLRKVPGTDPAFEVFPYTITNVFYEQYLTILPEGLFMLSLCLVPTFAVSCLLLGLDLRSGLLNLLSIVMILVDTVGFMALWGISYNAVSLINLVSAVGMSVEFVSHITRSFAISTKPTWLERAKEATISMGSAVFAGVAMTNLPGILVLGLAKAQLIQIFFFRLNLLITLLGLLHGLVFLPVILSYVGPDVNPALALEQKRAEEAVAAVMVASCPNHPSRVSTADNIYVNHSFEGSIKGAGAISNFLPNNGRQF

[2] = target: T2, NPC1L1 (Homo sapiens, UniProt Q9UHC9); conditions: co-administered with a statin; cited from earlier work
T2 sequence (Q9UHC9 22-1359): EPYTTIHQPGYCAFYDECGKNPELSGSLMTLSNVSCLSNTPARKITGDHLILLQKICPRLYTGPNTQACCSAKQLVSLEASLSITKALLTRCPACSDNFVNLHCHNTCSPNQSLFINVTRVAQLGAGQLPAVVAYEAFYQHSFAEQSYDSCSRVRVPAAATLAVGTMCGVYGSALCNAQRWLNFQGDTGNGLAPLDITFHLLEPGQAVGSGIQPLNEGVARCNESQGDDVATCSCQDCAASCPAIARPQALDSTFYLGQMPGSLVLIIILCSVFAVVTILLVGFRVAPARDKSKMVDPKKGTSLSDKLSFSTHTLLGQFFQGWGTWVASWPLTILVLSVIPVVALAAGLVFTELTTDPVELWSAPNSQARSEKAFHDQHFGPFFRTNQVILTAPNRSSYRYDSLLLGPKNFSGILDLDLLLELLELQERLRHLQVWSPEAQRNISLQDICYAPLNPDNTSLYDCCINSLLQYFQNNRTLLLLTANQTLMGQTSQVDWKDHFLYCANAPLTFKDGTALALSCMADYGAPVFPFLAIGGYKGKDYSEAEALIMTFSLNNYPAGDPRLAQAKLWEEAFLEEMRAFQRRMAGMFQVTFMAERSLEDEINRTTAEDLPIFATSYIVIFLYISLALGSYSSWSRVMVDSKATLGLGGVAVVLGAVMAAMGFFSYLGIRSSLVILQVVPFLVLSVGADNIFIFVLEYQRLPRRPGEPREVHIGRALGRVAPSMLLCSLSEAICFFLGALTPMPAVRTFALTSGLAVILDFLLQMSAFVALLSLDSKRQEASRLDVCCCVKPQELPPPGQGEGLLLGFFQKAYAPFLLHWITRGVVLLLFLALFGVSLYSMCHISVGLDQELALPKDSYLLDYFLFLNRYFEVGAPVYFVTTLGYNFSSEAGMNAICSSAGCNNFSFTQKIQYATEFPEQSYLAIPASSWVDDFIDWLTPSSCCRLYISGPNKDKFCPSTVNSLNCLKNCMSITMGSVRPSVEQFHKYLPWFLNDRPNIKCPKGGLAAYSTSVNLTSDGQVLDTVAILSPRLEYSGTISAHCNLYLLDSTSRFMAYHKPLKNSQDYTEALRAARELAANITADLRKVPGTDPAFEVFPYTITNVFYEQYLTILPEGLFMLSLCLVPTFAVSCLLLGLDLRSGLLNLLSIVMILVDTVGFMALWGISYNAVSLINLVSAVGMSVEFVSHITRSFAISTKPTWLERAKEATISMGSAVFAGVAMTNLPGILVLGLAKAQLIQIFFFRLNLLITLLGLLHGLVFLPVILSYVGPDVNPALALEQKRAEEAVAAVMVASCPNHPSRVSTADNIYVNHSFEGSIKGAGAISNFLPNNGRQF

O=C1[C@H](CC[C@H](O)c2ccc(F)cc2)[C@@H](c2ccc(O)cc2)N1c1ccc(F)cc1 [ezetimibe, 1-(4-fluorophenyl)-3(R)-[3-(4-fluorophenyl)-3(S)-hydroxypropyl]-4(S)-(4-hydroxyphenyl)-2-azetidinone]
additional LDL-C reduction compared with addition of placebo ([1]; added to ongoing statin therapy, stable dose of statins, EASE): ~23% | reduction in LDL-C ([1]; ezetimibe group of EASE trial (placebo 2.7%, p<0.001)): 25.8% | incremental LDL-C reduction attributable to ezetimibe [2]: 14-15%
